Laboratory results from PMC6297244, “Synthesis and Kinetic evaluation of an azido analogue of methylerythritol phosphate: a Novel Inhibitor of E. coli YgbP/IspD” (Scientific Reports, 2018).

Target: T1, YgbP/IspD (Escherichia coli, UniProt Q46893)
T1 sequence (Q46893 2-236): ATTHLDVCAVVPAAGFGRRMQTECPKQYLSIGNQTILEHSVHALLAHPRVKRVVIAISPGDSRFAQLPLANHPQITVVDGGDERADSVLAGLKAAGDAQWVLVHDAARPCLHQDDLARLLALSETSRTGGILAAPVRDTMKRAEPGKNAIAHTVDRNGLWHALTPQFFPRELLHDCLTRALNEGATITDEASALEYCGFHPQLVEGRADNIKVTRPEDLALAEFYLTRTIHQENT
Assay: steady-state inhibition kinetics, malachite green phosphate assay coupled to inorganic pyrophosphatase
Assay type: biochemical

In the case of `[N-]=[N+]=NC[C@](O)(CO)[C@H](O)COP(=O)(O)O` [compound 11, MEPN3], the Ki is reported as 21 ± 3 µM.
